Assay results reported in patent US8088806B2 (Achillion Pharmaceuticals, Inc., priority 2005, dated 2012).

System: HCV replicon
Experiment: Replicon based assay of HCV replication inhibition (NPT ELISA)
Format: cell-based, Hepatitis C virus
Settings: Hepatitis C virus, Huh-7, 72 h, Table I; Huh-7 HCV replicon-containing cells, three days; read-out: Activity
How it was run: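 Huh-7 cells carrying a bicistronic HCV replicon (neo, EMCV-IRES-driven NS3–NS5B) treated overnight after seeding with usually 6 concentrations, 10 to 0.03 micromolar, for three days at 37° C without G418. Replication read as NPT level by captured ELISA; matched-DMSO wells and interferon alpha as controls.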

| SMILES | EC50 |
| --- | --- |
| O=C(Nc1ccc(Cl)c(Cl)c1)c1csc(-c2cccnc2)n1 [compound 125, N-(3,4-dichlorophenyl)-2-(pyridin-3-yl)thiazole-4-carboxamide] | > 10 µM |
| CN(C(=O)c1csc(-c2cccnc2)n1)c1ccc(Cl)c(Cl)c1 [compound 126, N-(3,4-dichlorophenyl)-N-methyl-2-(pyridin-3-yl)thiazole-4-carboxamide] | > 10 µM |
| CCCCCOc1ccc(NC(=O)c2csc(-c3cccnc3)n2)cc1C(F)(F)F [compound 127, N-(3-(trifluoromethyl)-4-(pentyloxy)phenyl)-2-(pyridin-3-yl)thiazole-4-carboxamide] | > 10 µM |
| CCCCCOc1ccc(Nc2nc(C(=O)Nc3ccc(Cl)c(Cl)c3)cs2)cc1C(F)(F)F [compound 128, 2-(3-(trifluoromethyl)-4-(pentyloxy)phenylamino)-N-(3,4-dichlorophenyl)thiazole-4-carboxamide] | 1 to 10 µM |
| CCCCCOc1ccc(Nc2nc(C(=O)N(C)c3ccc(Cl)c(Cl)c3)cs2)cc1C(F)(F)F [compound 129, 2-(3-(trifluoromethyl)-4-(pentyloxy)phenylamino)-N-(3,4-dichlorophenyl)-N-methylthiazole-4-carboxamide] | > 10 µM |
| CCCCCOc1ccc(Nc2ncc(C(=O)OC)s2)cc1C(F)(F)F [compound 130, methyl 2-(3-(trifluoromethyl)-4-(pentyloxy)phenylamino)thiazole-5-carboxylate] | > 10 µM |
| CCCCCOc1ccc(Nc2nc(-c3ccc(O)c(C(N)=O)c3)cs2)cc1C(F)(F)F [compound 131, 5-(2-(3-(trifluoromethyl)-4-(pentyloxy)phenylamino)thiazol-4-yl)-2-hydroxybenzamide] | < 1 µM |
| CCCCCOc1ccc(Nc2nc(-c3ccc(C#N)cc3)cs2)cc1C(F)(F)F [compound 132, 4-(2-(3-(trifluoromethyl)-4-(pentyloxy)phenylamino)thiazol-4-yl)benzonitrile] | < 1 µM |
| CCCCCOc1ccc(Nc2nc(-c3ccc(F)c(F)c3)cs2)cc1C(F)(F)F [compound 133, N-(3-(trifluoromethyl)-4-(pentyloxy)phenyl)-4-(3,4-difluorophenyl)thiazol-2-amine] | < 1 µM |
| CCCCCOc1ccc(Nc2nc(-c3ccc(OC)cc3)cs2)cc1C(F)(F)F [compound 134, N-(3-(trifluoromethyl)-4-(pentyloxy)phenyl)-4-(4-methoxyphenyl)thiazol-2-amine] | < 1 µM |
| CCCCCOc1ccc(Nc2nc(-c3ccc(Cl)cc3)c(-c3ccccc3)s2)cc1C(F)(F)F [compound 135, 4-(4-chlorophenyl)-N-(3-(trifluoromethyl)-4-(pentyloxy)phenyl)-5-phenylthiazol-2-amine] | > 10 µM |
| CCCCCOc1ccc(Nc2nc(C(C)=O)c(C)s2)cc1C(F)(F)F [compound 136, 1-(2-(3-(trifluoromethyl)-4-(pentyloxy)phenylamino)-5-methylthiazol-4-yl)ethanone] | > 10 µM |
| CCCCCOc1ccc(Nc2nc(-c3ccc(OCC(=O)O)cc3)c(C)s2)cc1C(F)(F)F [compound 137, 2-(4-(2-(3-(trifluoromethyl)-4-(pentyloxy)phenylamino)-5-methylthiazol-4-yl)phenoxy)acetic acid] | < 1 µM |
| CCCCCOc1ccc(Nc2nc(-c3ccc(OCC(=O)OCC)cc3)c(C)s2)cc1C(F)(F)F [compound 139, ethyl 2-(4-(2-(3-(trifluoromethyl)-4-(pentyloxy)phenylamino)-5-methylthiazol-4-yl)phenoxy)acetate] | < 1 µM |
| CCCCCOc1ccc(N(C(=O)c2cccnc2)c2nc(NC(=O)c3cccnc3)cs2)cc1C(F)(F)F [compound 140, N-(2-(N-(3-(trifluoromethyl)-4-(pentyloxy)phenyl)nicotinamido)-thiazol-4-yl)nicotinamide] | < 1 µM |
| c1ccc(Oc2ccc(Nc3nc(-c4cccnc4)cs3)cc2)cc1 [compound 141, N-(4-phenoxyphenyl)-4-(pyridin-3-yl)thiazol-2-amine] | < 1 µM |
| Clc1ccc(-c2csc(NC3=NN(c4ccccc4)CC3)n2)cc1 [compound 142, N-(4-(4-chlorophenyl)thiazol-2-yl)-4,5-dihydro-1-phenyl-1H-pyrazol-3-amine] | > 10 µM |
| c1ccc(N2CCC(Nc3nc(-c4cccnc4)cs3)=N2)cc1 [compound 143, 4,5-dihydro-1-phenyl-N-(4-(pyridin-3-yl)thiazol-2-yl)-1H-pyrazol-3-amine] | > 10 µM |
| Fc1ccc(-c2csc(Nc3ccc(Oc4ccccc4)cc3)n2)cc1 [compound 144, 4-(4-fluorophenyl)-N-(4-phenoxyphenyl)thiazol-2-amine] | < 1 µM |
| Fc1ccc(-c2csc(Nc3nc(-c4ccc(Cl)cc4)cs3)n2)cc1 [compound 145, 4-(4-chlorophenyl)-N-(4-(4-fluorophenyl)thiazol-2-yl)thiazol-2-amine] | > 10 µM |
| Fc1ccc(-c2csc(NC3=NN(c4ccccc4)CC3)n2)cc1 [compound 146, N-(4-(4-fluorophenyl)thiazol-2-yl)-4,5-dihydro-1-phenyl-1H-pyrazol-amine] | > 10 µM |

| SMILES | EC50 |
| --- | --- |
| CCOC(=O)Cc1csc(Nc2nc(-c3ccc(Cl)cc3)cs2)n1 [compound 147, ethyl 2-(2-(4-(4-chlorophenyl)thiazol-2-ylamino)thiazol-4-yl)acetate] | > 10 µM |
| CCCCCOc1ccc(Nc2ncc(C(=O)O)s2)cc1C(F)(F)F [compound 148, 2-(3-(trifluoromethyl)-4-(pentyloxy)phenylamino)thiazole-5-carboxylic acid] | > 10 µM |
| CCCCCOc1ccc(Nc2ncc(C(=O)Nc3ccc(Cl)cc3)s2)cc1C(F)(F)F [compound 149, 2-(3-(trifluoromethyl)-4-(pentyloxy)phenylamino)-N-(4-chlorophenyl)thiazole-5-carboxamide] | < 1 µM |
| CCCCCOc1ccc(Nc2ncc(C(=O)Nc3ccc(C#N)cc3)s2)cc1C(F)(F)F [compound 150, 2-(3-(trifluoromethyl)-4-(pentyloxy)phenylamino)-N-(4-cyanophenyl)thiazole-5-carboxamide] | < 1 µM |
| CCCCCOc1ccc(Nc2ncc(C(=O)NCc3ccc(S(N)(=O)=O)cc3)s2)cc1C(F)(F)F [compound 151, N-(4-aminosulfonyl-benzyl)-2-(4-(pentyloxy)-3-(trifluoromethyl)phenylamino)-thiazole-5-carboxamide] | > 10 µM |
| CCCCCOc1ccc(Nc2nc(C(=O)NCc3ccc(S(N)(=O)=O)cc3)cs2)cc1C(F)(F)F [compound 153, 2-(4-(pentyloxy)-3-(trifluorornethyl)phenylamino)-N-(4-aminosulfonylbenzyl)thiazole-4-carboxamide] | 1 to 10 µM |
| CCCCCOc1ccc(Nc2nc(-c3ccc(C)nc3)cs2)cc1C(F)(F)F [compound 154, N-(3-(trifluoromethyl)-4-(pentyloxy)phenyl)-4-(6-methylpyridin-3-yl)thiazol-2-amine] | < 1 µM |
| CCCCCOc1ccc(Nc2nc(-c3ccc(C(=O)O)cc3)cs2)cc1C(F)(F)F [compound 155, 4-(2-(3-(trifluoromethyl)-4-(pentyloxy)phenylamino)thiazol-4-yl)benzoic acid] | < 1 µM |
| CCCCCOc1ccc(Nc2nc(-c3cnccn3)cs2)cc1C(F)(F)F [compound 156, N-(3-(trifluoromethyl)-4-(pentyloxy)phenyl)-4-(pyrazin-2-yl)thiazol-2-amine] | < 1 µM |
| CCCCCOc1ccc(N(C)c2nc(-c3cccnc3)cs2)cc1C(F)(F)F [compound 157, N-(3-(trifluoromethyl)-4-(pentyloxy)phenyl)-N-methyl-4-(pyridin-3-yl)thiazol-2-amine] | < 1 µM |
| CCCCCOc1ccc(N(C)c2nc(C(=O)O)cs2)cc1C(F)(F)F [compound 158, 2-(N-(3-(trifluoromethyl)-4-(pentyloxy)phenyl)-N-methylamino)thiazole-4-carboxylic acid] | > 10 µM |
| CCCCCOc1ccc(N(C)c2nc(C(=O)Nc3ccc(Cl)cc3)cs2)cc1C(F)(F)F [compound 159, 2-(N-(3-(trifluoromethyl)-4-(pentyloxy)phenyl)-N-methylamino)-N-(4-chlorophenyl)thiazole-4-carboxamide] | > 10 µM |
| CCCCCOc1ccc(N(C)c2nc(C(=O)Nc3ccc(C#N)cc3)cs2)cc1C(F)(F)F [compound 160, 2-(N-(3-(trifluoromethyl)-4-(pentyloxy)phenyl)-N-methylamino)-N-(4-cyanophenyl)thiazole-4-carboxamide] | > 10 µM |
| CCCCCOc1ccc(Nc2nc(C(N)CC(C)C)cs2)cc1C(F)(F)F (centres unmarked) [compound 161, 4-(1-amino-3-methylbutyl)-N-(3-(trifluoromethyl)-4-(pentyloxy)phenyl)thiazol-2-amine] | 1 to 10 µM |
| CCCCCOc1ccc(N(C)c2nc(C(=O)Nc3cccnc3)cs2)cc1C(F)(F)F [compound 162, 2-(N-(3-(trifluoromethyl)-4-(pentyloxy)phenyl)-N-methylamino)-N-(pyridin-3-yl)thiazole-4-carboxamide] | > 10 µM |
| CCCCCOc1ccc(Nc2ncc(C(=O)Nc3cccnc3)s2)cc1C(F)(F)F [compound 163, 2-(3-(trifluoromethyl)-4-(pentyloxy)phenylamino)-N-(pyridin-3-yl)thiazole-5-carboxamide] | < 1 µM |
| COc1ccc(OC)c(Nc2nc(-c3c(C)nc4sccn34)cs2)c1 [compound 164, N-(2,5-dimethoxyphenyl)-4-(6-methylimidazo[2,1-b]thiazol-5-yl)thiazol-2-amine] | > 10 µM |
| COc1ccc(Nc2nc(-c3c(C)nc4sccn34)cs2)cc1 [compound 165, N-(4-methoxyphenyl)-4-(6-methylimidazo[2,1-b]thiazol-5-yl)thiazol-2-amine] | < 1 µM |
| CC(=O)c1cccc(Nc2nc(-c3c(C)nc4cc(C)ccn34)cs2)c1 [compound 167, 1-(3-(4-(2,7-dimethylH-imidazo[1,2-a]pyridin-3-yl)thiazol-2-ylamino)phenyl)ethanone] | > 10 µM |
| Cc1c(-c2csc(Nc3ccccc3)n2)sc2ncnn12 [compound 168, 4-(6-methylthiazolo[3,2-b][1,2,4]triazol-5-yl)-N-phenylthiazol-2-amine] | 1 to 10 µM |
